The values below come from patent publication US9957263B2, “Bromodomain inhibitors” (AbbVie Inc., priority 2013, dated 2018).

For orientation: Ki means a measure of affinity in units of concentration, obtained from inhibition or displacement. Higher therefore signals weaker binding.

One assay addresses BRD4 (BDII_E352-M457) (Homo sapiens (Human), UniProt O60885). The assay is described as follows: TR-FRET bromodomain binding assay, BRD4 second bromodomain. The conditions noted are these: His-tagged BD2, Alexa647-labeled probe 30 nM. How it is done: (§1) A time-resolved fluorescence resonance energy transfer (TR-FRET) assay was used to determine the affinities of compounds of the Examples listed in Table 1 for each bromodomain of BRD4. His-tagged first (BD1: amino acids K57-E168) and second (BD2: amino acids E352-E168) bromodomains of BRD4 were expressed and purified. An Alexa647-labeled BET-inhibitor was used as the fluorescent probe in the assay.
(§2) Compound dilution series were prepared in DMSO via a 3-fold serial dilution from 2.5 mM to 42 nM. Compounds were then diluted 6:100 in assay buffer (20 mM Sodium Phosphate, pH 6.0, 50 mM NaCl, 1 mM Ethylenediaminetetraacetic acid disodium salt dihydrate, 0.01% Triton X-100, 1 mM DL-Dithiothreitol) to yield 3× working solutions. Six microliters (μL) of the working solution was then transferred to white, low-volume assay plates (Costar #3673). A 1.5× assay mixture containing His-tagged bromodomain, Europium-conjugated anti-His antibody (Invitrogen PV5596) and the Alexa-647-conjugated probe molecule was also prepared. Twelve μL of this solution were added to the assay plate to reach a final volume of 18 μL. The final concentration of 1× assay buffer contains 2% DMSO, 50 μM-0.85 nM compound, 8 nM His-tagged bromodomain, 1 nM Europium-conjugated anti-His-tag antibody and 100 nM or 30 nM probe (for BDI or BDII, respectively). After a one-hour incubation at room temperature, TR-FRET ratios were determined using an Envision multilabel plate reader (Ex 340, Em […]).
(§3) TR-FRET data were normalized to the means of 24 no-compound controls (“high”) and 8 controls containing 1 μM un-labeled probe (“low”). Percent inhibition was plotted as a function of compound concentration and the data were fit with the 4 parameter logistic equation to obtain IC50s. Inhibition constants (Ki) were calculated from the IC50s, probe Kd and probe concentration. Typical Z′ values were between 0.65 and 0.75. The minimum significant ratio was determined to evaluate assay reproducibility (Eastwood et al., (2006) J Biomol Screen, 11: 253-261). The MSR was determined to be 2.03 for BDI and 1.93 for BDII, and a moving MSR (last six run MSR overtime) for both BDI and BDII was typically <3.
(In general: Time-resolved FRET reads energy transfer from a long-lived donor to a nearby acceptor.)

The target in a further assay is BRD4 (BDI_K57-E168) (Homo sapiens (Human), UniProt O60885). The experiment in a line: TR-FRET bromodomain binding assay, BRD4 first bromodomain. The conditions noted are these: His-tagged BD1, Alexa647-labeled probe 100 nM. How it is done:
as §1, §2, §3

Consider `Cc1cc(-c2ccc(-c3cn(C)c(=O)c4[nH]ccc34)c(OCC3CC3)c2)[nH]n1` [Example 1, 4-[2-(cyclopropylmethoxy)-4-(3-methyl-1H-pyrazol-5-yl)phenyl]-6-methyl-1,6-dihydro-7H-pyrrolo[2,3-c]pyridin-7-one], for which the values for the inhibition constant Ki at BRD4 (BDII_E352-M457) and at BRD4 (BDI_K57-E168) were 55 nM and 26 nM, respectively.

With `CCS(=O)(=O)Nc1cc(-c2cn(C)c(=O)c3[nH]ccc23)c(Oc2ccc(F)cc2F)cc1CN1CCCCC1` [Example 3, N-[4-(2,4-difluorophenoxy)-5-(6-methyl-7-oxo-6,7-dihydro-1H-pyrrolo[2,3-c]pyridin-4-yl)-2-(piperidin-1-ylmethyl)phenyl]ethanesulfonamide], the figures for the Ki on BRD4 (BDII_E352-M457) and on BRD4 (BDI_K57-E168) were 2.8 nM and 88 nM, respectively.

On to `CCS(=O)(=O)Nc1cc(-c2cn(C)c(=O)c3[nH]ccc23)c(Oc2ccc(F)cc2F)cc1CN1CCOCC1` [Example 4, N-[4-(2,4-difluorophenoxy)-5-(6-methyl-7-oxo-6,7-dihydro-1H-pyrrolo[2,3-c]pyridin-4-yl)-2-(morpholin-4-ylmethyl)phenyl]ethanesulfonamide], for which the Ki was 1.7 nM at BRD4 (BDII_E352-M457) and 11 nM at BRD4 (BDI_K57-E168).

For `CCS(=O)(=O)Nc1cc(-c2cn(C)c(=O)c3[nH]ccc23)c(Oc2ccc(F)cc2F)cc1CN1CCN(C)CC1` [Example 5, N-{4-(2,4-difluorophenoxy)-5-(6-methyl-7-oxo-6,7-dihydro-1H-pyrrolo[2,3-c]pyridin-4-yl)-2-[(4-methylpiperazin-1-yl)methyl]phenyl}ethanesulfonamide], the inhibition constant (Ki) at BRD4 (BDII_E352-M457) amounted to 1.7 nM; on BRD4 (BDI_K57-E168), 16 nM.

`CCS(=O)(=O)Nc1cc(-c2cn(C)c(=O)c3[nH]ccc23)c(Oc2ccc(F)cc2F)cc1CO` [Example 6, N-[4-(2,4-difluorophenoxy)-2-(hydroxymethyl)-5-(6-methyl-7-oxo-6,7-dihydro-1H-pyrrolo[2,3-c]pyridin-4-yl)phenyl]ethanesulfonamide]: the Ki on BRD4 (BDII_E352-M457) amounted to 2 nM; at BRD4 (BDI_K57-E168), 14 nM.

For `CCS(=O)(=O)Nc1cc(-c2cn(C)c(=O)c3[nH]ccc23)c(Oc2ccc(F)cc2F)cc1CNC1CCCC1` [Example 7, N-{2-[(cyclopentylamino)methyl]-4-(2,4-difluorophenoxy)-5-(6-methyl-7-oxo-6,7-dihydro-1H-pyrrolo[2,3-c]pyridin-4-yl)phenyl}ethanesulfonamide], the Ki at BRD4 (BDII_E352-M457) turned out to be 6.9 nM; at BRD4 (BDI_K57-E168) it was 32 nM.

As to `CCS(=O)(=O)Nc1cc(-c2cn(C)c(=O)c3[nH]ccc23)c(Oc2ccc(F)cc2F)cc1C(N)=O` [Example 8, 5-(2,4-difluorophenoxy)-2-[(ethylsulfonyl)amino]-4-(6-methyl-7-oxo-6,7-dihydro-1H-pyrrolo[2,3-c]pyridin-4-yl)benzamide], the inhibition constant Ki was determined as 1.8 nM on BRD4 (BDII_E352-M457) and 1.5 nM at BRD4 (BDI_K57-E168).

With `CCS(=O)(=O)Nc1cc(-c2cn(C)c(=O)c3[nH]ccc23)c(Oc2ccc(F)cc2F)cc1C(=O)NC1CCCC1` [Example 9, N-cyclopentyl-5-(2,4-difluorophenoxy)-2-[(ethylsulfonyl)amino]-4-(6-methyl-7-oxo-6,7-dihydro-1H-pyrrolo[2,3-c]pyridin-4-yl)benzamide], the Ki was determined as 2 nM at BRD4 (BDII_E352-M457) and 1.7 nM on BRD4 (BDI_K57-E168).

`CCS(=O)(=O)Nc1cc(-c2cn(C)c(=O)c3[nH]ccc23)c(Oc2ccc(F)cc2F)cc1C(=O)N(C)C` [Example 10, 5-(2,4-difluorophenoxy)-2-[(ethylsulfonyl)amino]-N,N-dimethyl-4-(6-methyl-7-oxo-6,7-dihydro-1H-pyrrolo[2,3-c]pyridin-4-yl)benzamide]: the inhibition constant Ki amounted to 8.3 nM at BRD4 (BDII_E352-M457) and 72 nM at BRD4 (BDI_K57-E168).

`CCS(=O)(=O)Nc1cc(-c2cn(C)c(=O)c3[nH]ccc23)c(Oc2ccc(F)cc2F)cc1C(=O)O` [Example 11, 5-(2,4-difluorophenoxy)-2-[(ethylsulfonyl)amino]-4-(6-methyl-7-oxo-6,7-dihydro-1H-pyrrolo[2,3-c]pyridin-4-yl)benzoic acid]: the Ki at BRD4 (BDII_E352-M457) came out at 1 nM; on BRD4 (BDI_K57-E168) it was 0.8 nM.

Consider `CCS(=O)(=O)Nc1cc(-c2cn(C)c(=O)c3[nH]ccc23)c(Oc2ccc(F)cc2F)cc1C(=O)NC1CCOCC1` [Example 12, 5-(2,4-difluorophenoxy)-2-[(ethylsulfonyl)amino]-4-(6-methyl-7-oxo-6,7-dihydro-1H-pyrrolo[2,3-c]pyridin-4-yl)-N-(tetrahydro-2H-pyran-4-yl)benzamide], for which the figures for the inhibition constant Ki at BRD4 (BDII_E352-M457) and at BRD4 (BDI_K57-E168) were 1.6 nM and 1.8 nM, respectively.

Take `CCS(=O)(=O)Nc1cc(-c2cn(C)c(=O)c3[nH]ccc23)c(Oc2ccc(F)cc2F)cc1CNCCO` [Example 13, N-[4-(2,4-difluorophenoxy)-2-{[(2-hydroxyethyl)amino]methyl}-5-(6-methyl-7-oxo-6,7-dihydro-1H-pyrrolo[2,3-c]pyridin-4-yl)phenyl]ethanesulfonamide]: the Ki at BRD4 (BDII_E352-M457) stood at 7.4 nM; at BRD4 (BDI_K57-E168), 42 nM.

On to `CCS(=O)(=O)Nc1cc(-c2cn(C)c(=O)c3[nH]ccc23)c(Oc2ccc(F)cc2F)cc1CN1CCCC1c1ccccc1` (stereo not drawn) [Example 14, N-{4-(2,4-difluorophenoxy)-5-(6-methyl-7-oxo-6,7-dihydro-1H-pyrrolo[2,3-c]pyridin-4-yl)-2-[(2-phenylpyrrolidin-1-yl)methyl]phenyl}ethanesulfonamide], for which the inhibition constant (Ki) at BRD4 (BDII_E352-M457) is 14 nM; at BRD4 (BDI_K57-E168), 71 nM.

Take `CCS(=O)(=O)Nc1cc(-c2cn(C)c(=O)c3[nH]ccc23)c(Oc2ccc(F)cc2F)c(C2CC2)c1` [Example 15, N-[3-cyclopropyl-4-(2,4-difluorophenoxy)-5-(6-methyl-7-oxo-6,7-dihydro-1H-pyrrolo[2,3-c]pyridin-4-yl)phenyl]ethanesulfonamide]: the Ki at BRD4 (BDII_E352-M457) turned out to be 2.6 nM; at BRD4 (BDI_K57-E168), 4.6 nM.

Turning to `CCS(=O)(=O)c1ccc(OCC2CC2(F)F)c(-c2cn(C)c(=O)c3[nH]c(CN4CCN(c5ccncc5)CC4)cc23)c1` (stereo not drawn) [Example 16, 4-{2-[(2,2-difluorocyclopropyl)methoxy]-5-(ethylsulfonyl)phenyl}-6-methyl-2-{[4-(pyridin-4-yl)piperazin-1-yl]methyl}-1,6-dihydro-7H-pyrrolo[2,3-c]pyridin-7-one], the results for the inhibitory constant (Ki) on BRD4 (BDII_E352-M457) and on BRD4 (BDI_K57-E168) were 30 nM and 2.5 nM, respectively.

Turning to `CCS(=O)(=O)c1ccc(OCC2CC2(F)F)c(-c2cn(C)c(=O)c3[nH]c(CN4CCN(c5nccs5)CC4)cc23)c1` (stereo not drawn) [Example 17, 4-{2-[(2,2-difluorocyclopropyl)methoxy]-5-(ethylsulfonyl)phenyl}-6-methyl-2-{[4-(1,3-thiazol-2-yl)piperazin-1-yl]methyl}-1,6-dihydro-7H-pyrrolo[2,3-c]pyridin-7-one], the Ki came out at 60 nM on BRD4 (BDII_E352-M457) and 4.4 nM on BRD4 (BDI_K57-E168).

With `CCS(=O)(=O)c1ccc(OCC2CC2(F)F)c(-c2cn(C)c(=O)c3[nH]c(CN4CCN(c5cnccn5)CC4)cc23)c1` (stereo not drawn) [Example 18, 4-{2-[(2,2-difluorocyclopropyl)methoxy]-5-(ethylsulfonyl)phenyl}-6-methyl-2-{[4-(pyrazin-2-yl)piperazin-1-yl]methyl}-1,6-dihydro-7H-pyrrolo[2,3-c]pyridin-7-one], the Ki at BRD4 (BDII_E352-M457) was 48 nM; at BRD4 (BDI_K57-E168), 4.4 nM.

Take `CCS(=O)(=O)c1ccc(OCC2CC2(F)F)c(-c2cn(C)c(=O)c3[nH]c(CN4CCN(c5cccnc5)CC4)cc23)c1` (stereo not drawn) [Example 20, 4-{2-[(2,2-difluorocyclopropyl)methoxy]-5-(ethylsulfonyl)phenyl}-6-methyl-2-{[4-(pyridin-3-yl)piperazin-1-yl]methyl}-1,6-dihydro-7H-pyrrolo[2,3-c]pyridin-7-one]: the figures for the inhibition constant (Ki) on BRD4 (BDII_E352-M457) and at BRD4 (BDI_K57-E168) were 48 nM and 4.9 nM, respectively.

Regarding `Cn1cc(-c2cc(S(C)(=O)=O)ccc2Oc2cccc(C(=O)NC3CC3)c2)c2cc[nH]c2c1=O` [Example 21, N-cyclopropyl-3-[2-(6-methyl-7-oxo-6,7-dihydro-1H-pyrrolo[2,3-c]pyridin-4-yl)-4-(methylsulfonyl)phenoxy]benzamide], the Ki was found to be 10 nM on BRD4 (BDII_E352-M457) and 33 nM at BRD4 (BDI_K57-E168).

As for `Cn1cc(-c2cc(S(C)(=O)=O)ccc2Oc2cccc(C(=O)N3CCC(N4CCCC4)CC3)c2)c2cc[nH]c2c1=O` [Example 24, 6-methyl-4-[5-(methylsulfonyl)-2-(3-{[4-(pyrrolidin-1-yl)piperidin-1-yl]carbonyl}phenoxy)phenyl]-1,6-dihydro-7H-pyrrolo[2,3-c]pyridin-7-one], the inhibition constant (Ki) amounted to 12 nM at BRD4 (BDII_E352-M457) and 15 nM at BRD4 (BDI_K57-E168).

`Cn1cc(-c2cc(S(C)(=O)=O)ccc2Oc2cccc(C(=O)NC3CCCCC3)c2)c2cc[nH]c2c1=O` [Example 25, N-cyclohexyl-3-[2-(6-methyl-7-oxo-6,7-dihydro-1H-pyrrolo[2,3-c]pyridin-4-yl)-4-(methylsulfonyl)phenoxy]benzamide]: the Ki worked out at 6.1 nM at BRD4 (BDII_E352-M457) and 19 nM at BRD4 (BDI_K57-E168).
